Data on one molecule can be found in PMC7669869, “AdipoR1/AdipoR2 dual agonist recovers nonalcoholic steatohepatitis and related fibrosis via endoplasmic reticulum-mitochondria axis” (Nature Communications, 2020).

Non-standard residues stand in square brackets, D forms with d. Residues, ends and D or L forms follow the SMILES beside them. Nva = CCC[C@H](N)C(=O)O

The subject of test [1] is AdipoR1 and AdipoR2 on HepG2 and LX2 cells. In words: Cell confocal imaging, receptor binding of FITC labeled peptide (with AdipoR siRNA). Set-up: species or system human. The following applies: 37 °C, 2 or 4 h, AdipoR1/AdipoR2 siRNA as control, in words. Here is the method: For in vitro receptor binding assay, 4E4 HepG2 cells or 2E4 LX2 cells were seeded on 35 mm glass bottom dish with 150 μL complete medium. Then cells were incubated with FITC labeled peptide for 4 h. The nuclei were stained with Hoechst 33342 (ThermoFisher, Scientific, USA). After washing with PBS, cells were visualized in a laser confocal microscope (Olympus FV3000, Japan). Cells with suppressed AdipoR1 and AdipoR2 expression with each specific siRNA were used as negative control.
AdipoR1 and AdipoR2 siRNA as well as mock siRNA were chemically synthesized (GenePharma, China) and transfected into 60–70% confluent HepG2 and LX2 cells using Lipofectamine 3000 (ThermoFisher Scientific, USA). Dilution of siRNA and Lipofectamine 3000 reagents as well as the transfection of cells were performed following the manufacturer’s protocol. For HepG2 cell model, 5E5 cells were plated in 6-well plates and transfected with 5 μL of 20 μM stock siRNA. At 48 h following transfection, the cells were processed for 0.25 mM PA and/or 200 μM JT003 treated for another 24 h. BSA was used as the negative control. For LX2 cell model, 2E5 cells were plated in 6-well plates and transfected with 5 μL of 20 μM stock siRNA. At 48 h following transfection, the cells were processed for JT003 or PBS treated for another 48 h. Next, cells were harvested for either western blot or qPCR assay.

The next test relates to HFD induced NASH mice. In words: HFD mice: serum and liver biochemical assays (ALT, FFA, LDL-C, hepatic TG, glycogen). It counts as in vivo, mouse. The protocol: Male C57BL/6J mice of 6–8 weeks of age (20–24 g) were used in these experiments including the NAFLD model and liver fibrosis model. The mice were purchased from Guangdong Medical Laboratory Animal Center and housed in standard isolator cages and maintained on a room temperature of 25 °C and a 12 h:12 h light/dark cycle. At the end of the experiments, mice were fasted 8 h prior to sacrifice. Liver tissue and/or epididymal adipose tissue were flash frozen in liquid nitrogen (with or without RNAlater (TransGen Biotech, China)) and stored at −80 °C for future use, or fixed in 10% paraformaldehyde for histological assays. Blood samples were obtained from the posterior venous plexus of the eyes of anesthetized mice, Blood was separated by centrifugation at 1000g for 15 min Serum was then stored at −80 °C. The ethical approval has been obtained from Animal Care and Use Committee of the Sun Yat-sen University. All animals were maintained in pathogen-free conditions and cared for in accordance with policies and certification of the Association for Assessment and Accreditation of Laboratory Animal Care International (AAALAC International).
The NASH model was conducted with feeding a HFD for 16 weeks combine with a MCD diet (Methionine/Choline Deficient Diet, Medicience, China) in the last 4 weeks. […]
The levels of ALT, AST, TC and TG in serum were determined using certain commercial assay kits (Nanjing Jiancheng Bioengineering Institute, China). Fasting adiponectin and insulin were quantified in plasma samples using corresponding commercially available Elisa kits (Cloud-Clone Crop, USA).
The levels of TG and HYP in liver tissue were detected with certain commercial assay kit (Nanjing Jiancheng Bioengineering Institute, China). […] The cryostat-cut slices were stained with freshly prepared Oil Red O working solution for 7 min Two independent experimenters who were blinded to the treatment evaluated the staining slides and analyzed the score for steatosis, glucogen accumulation and collagen proliferation area.

The next test addresses T1, AdipoR1 (Homo sapiens, UniProt Q96A54).
T1 construct: His; host or cells: HEK293
T1 sequence (Q96A54 1-375): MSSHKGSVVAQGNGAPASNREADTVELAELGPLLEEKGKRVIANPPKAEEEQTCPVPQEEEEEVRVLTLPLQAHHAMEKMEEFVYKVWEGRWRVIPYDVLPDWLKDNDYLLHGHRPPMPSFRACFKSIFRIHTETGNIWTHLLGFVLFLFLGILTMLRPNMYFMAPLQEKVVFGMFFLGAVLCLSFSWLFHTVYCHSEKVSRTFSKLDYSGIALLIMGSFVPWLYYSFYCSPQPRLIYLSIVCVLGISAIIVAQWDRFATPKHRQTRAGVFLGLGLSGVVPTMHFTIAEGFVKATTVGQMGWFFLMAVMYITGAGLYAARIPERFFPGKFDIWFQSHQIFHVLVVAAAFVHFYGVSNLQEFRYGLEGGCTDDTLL
In words: Competition binding assay vs globular adiponectin (western blot), AdipoR1 overexpression cells. The settings on record: JT003 4 h, then 50 μg ml−1 gAd155–161 4 h, in words. The protocol: Different concentration of JT003 were incubated with AdipoR1 or AdipoR2 overexpression HEK293 cell line for 4 h. After that, 50 μg ml^−1 gAd155–161 were added for another 4 h incubation. The binding of gAd155–161 to the cells were measured via western blot assay.
For orientation: A western blot detects proteins with antibodies after separation by electrophoresis.

With `CCC[C@H](NC(=O)[C@@H]1CCCN1)C(=O)N[C@@H](CC(C)C)C(=O)N[C@@H](Cc1ccc(O)cc1)C(=O)N[C@@H](Cc1ccc(O)cc1)C(=O)N[C@@H](Cc1ccccc1)C(=O)N[C@@H](C)C(N)=O` [JT003] (H-P[Nva]LYYFA-NH2), the “binding to AdipoRs on the cell membrane (confocal, FITC)” value in test [1] was “could specifically bind to AdipoR1 and/or AdipoR2 on the cell membrane”. Also, in the test on HFD induced NASH mice (JT003 500 μg kg−1, in words), the “decrease of the circulating lipid in the HFD group” value is on record as “reverted”. For the same molecule, the “Hepatocytes TG and serum LDL-C contents” value in the test with HFD induced NASH mice (JT003 500 μg kg−1 i.p. daily 4 weeks, in words) is listed as “obviously reduced”. In addition, the ALT level entry with HFD induced NASH mice (JT003 500 μg kg−1 i.p. daily 4 weeks, vs HFD, in words) is “reduced”. On AdipoR1, the “competitive binding to globular adiponectin, AdipoR1 overexpression cells” value is listed as “more JT003 cause less globular adiponectin binding”.
